# From ChEMBL document CHEMBL4346726 (Bioorg Med Chem Lett, 2019)
# Key:
# Hepatitis C virus [1] = experiment: Antiviral activity against HCV genotype 1a harboring Q80K mutant in RLuc cells assessed as reduction in viral replication by luciferase reporter gene assay; type: functional, organism-based, Hepacivirus hominis; conditions: subtype 1a
# [2] = Inhibition of HCV genotype 3a NS3/4a protease by enzymatic assay; design: species or system Hepatitis C virus subtype 3a
# Hepatitis C virus [3] = experiment: Antiviral activity against HCV genotype 3a in RLuc cells assessed as reduction in viral replication by luciferase reporter gene assay; type: functional, organism-based, Hepacivirus hominis, subtype 3a; conditions: Hepatitis C virus, subtype 3a
# [4] = Half life in rat at 1 mg/kg, iv or 3 mg/kg, po; type: ADME, organism-based; conditions: in vivo
# [5] = Half life in dog at 0.5 mg/kg, iv or 1 mg/kg, po; type: ADME, […], Canis lupus familiaris; conditions: in vivo
# [6] = Volume of distribution at steady state in cynomolgus monkey at 0.5 mg/kg, iv or 1 mg/kg, po; type: ADME, organism-based, Macaca fascicularis; conditions: in vivo, read-out: Vdss
# Hepacivirus hominis = experiment: Binding affinity to HCV NS3/4a protease assessed as compound-protein adduct formation per mg protein using radiolabelled compound
# Hepatitis C virus [7] = experiment: Antiviral activity against HCV genotype 1a in RLuc cells assessed as reduction in viral replication by luciferase reporter gene assay; type: functional, organism-based, Hepacivirus hominis; conditions: subtype 1a
# Hepatitis C virus [8] = experiment: Antiviral activity against HCV genotype 1b in RLuc cells assessed as reduction in viral replication by luciferase reporter gene assay; type: functional, organism-based, Hepacivirus hominis; conditions: subtype 1b
# Hepatitis C virus [9] = experiment: Antiviral activity against HCV genotype 2a in RLuc cells assessed as reduction in viral replication by luciferase reporter gene assay; type: functional, organism-based, Hepacivirus hominis; conditions: subtype 2a
# Hepatitis C virus [10] = experiment: Antiviral activity against HCV genotype 2b in RLuc cells assessed as reduction in viral replication by luciferase reporter gene assay; type: functional, organism-based, Hepacivirus hominis; conditions: subtype 2b
# Hepatitis C virus [11] = experiment: Antiviral activity against HCV genotype 4a in RLuc cells assessed as reduction in viral replication by luciferase reporter gene assay; type: functional, organism-based, Hepacivirus hominis; conditions: subtype 4a
# Hepatitis C virus [12] = experiment: Antiviral activity against HCV genotype 5a in RLuc cells assessed as reduction in viral replication by luciferase reporter gene assay; type: functional, organism-based, Hepacivirus hominis; conditions: subtype 5a
# Hepatitis C virus [13] = experiment: Antiviral activity against HCV genotype 6a in RLuc cells assessed as reduction in viral replication by luciferase reporter gene assay; type: functional, organism-based, Hepacivirus hominis; conditions: subtype 6a
# Hepatitis C virus [14] = experiment: Antiviral activity against HCV genotype 1a harboring R155K mutant in RLuc cells assessed as reduction in viral replication by luciferase reporter gene assay; type: functional, organism-based, Hepacivirus hominis; conditions: subtype 1a
# Hepatitis C virus [15] = experiment: Antiviral activity against HCV genotype 1b harboring D168E mutant in RLuc cells assessed as reduction in viral replication by luciferase reporter gene assay; type: functional, organism-based, Hepacivirus hominis; conditions: subtype 1b
# Hepatitis C virus [16] = experiment: Antiviral activity against HCV genotype 1a harboring A156T mutant in RLuc cells assessed as reduction in viral replication by luciferase reporter gene assay; type: functional, organism-based, Hepacivirus hominis; conditions: subtype 1a
# Hepatitis C virus [17] = experiment: Antiviral activity against HCV genotype 1b harboring A156T mutant in RLuc cells assessed as reduction in viral replication by luciferase reporter gene assay; type: functional, organism-based, Hepacivirus hominis; conditions: subtype 1b
# [18] = Fraction unbound in rat plasma; type: ADME, cell-free
# [19] = Fraction unbound in dog plasma; type: ADME, cell-free, Canis lupus familiaris
# [20] = Fraction unbound in cynomolgus monkey plasma; type: ADME, cell-free, Macaca fascicularis
# [21] = Fraction unbound in human plasma; type: ADME, cell-free
# [22] = Clearance in rat at 1 mg/kg, iv or 3 mg/kg, po; type: ADME, organism-based; conditions: in vivo
# [23] = Clearance in dog at 0.5 mg/kg, iv or 1 mg/kg, po; type: ADME, […], Canis lupus familiaris; conditions: in vivo
# [24] = Clearance in cynomolgus monkey at 0.5 mg/kg, iv or 1 mg/kg, po; type: ADME, organism-based, Macaca fascicularis; conditions: in vivo
# [25] = Volume of distribution at steady state in rat at 1 mg/kg, iv or 3 mg/kg, po; type: ADME, organism-based; conditions: in vivo, read-out: Vdss
# [26] = Volume of distribution at steady state in dog at 0.5 mg/kg, iv or 1 mg/kg, po; type: ADME, […], Canis lupus familiaris; conditions: in vivo, read-out: Vdss
# [27] = Half life in cynomolgus monkey at 0.5 mg/kg, iv or 1 mg/kg, po; type: ADME, organism-based, Macaca fascicularis; conditions: in vivo
# [28] = Oral bioavailability in rat at 3 mg/kg; type: ADME, organism-based; conditions: in vivo
# [29] = Oral bioavailability in dog at 1 mg/kg; type: ADME, […], Canis lupus familiaris; conditions: in vivo
# [30] = Oral bioavailability in cynomolgus monkey at 1 mg/kg; type: ADME, organism-based, Macaca fascicularis; conditions: in vivo
# [31] = Fraction absorbed in rat at 3 mg/kg, po; type: ADME, organism-based; conditions: in vivo, read-out: Fabs
# [32] = Fraction absorbed in dog at 1 mg/kg, po; type: ADME, […], Canis lupus familiaris; conditions: in vivo, read-out: Fabs
# [33] = Fraction absorbed in cynomolgus monkey at 1 mg/kg, po; type: ADME, organism-based, Macaca fascicularis; conditions: in vivo, read-out: Fabs
# [34] = Ratio of drug level in rat liver to plasma at 1 mg/kg, iv or 3 mg/kg, po measured at 2 hr; type: ADME, organism-based
# [35] = Ratio of drug level in dog liver to plasma at 0.5 mg/kg, iv or 1 mg/kg, po measured at 2 hr; type: ADME, […], Canis lupus familiaris
# [36] = Ratio of drug level in cynomolgus monkey liver to plasma at 0.5 mg/kg, iv or 1 mg/kg, po measured at 2 hr; type: ADME, organism-based, Macaca fascicularis
# [37] = Selectivity ratio of EC50 for antiviral activity against HCV genotype 3a to EC50 for antiviral activity against HCV genotype 1a; type: functional
# [38] = Protein binding in rat plasma; type: ADME; conditions: read-out: PPB
# [39] = Protein binding in dog plasma; type: ADME, Canis lupus familiaris; conditions: read-out: PPB
# [40] = Protein binding in cynomolgus monkey plasma; type: ADME, Macaca fascicularis; conditions: read-out: PPB
# [41] = Protein binding in human plasma; type: ADME; conditions: read-out: PPB
# [42] = Drug uptake in human hepatocytes; type: ADME, cell-based, Hepatocyte; conditions: TDE = time-dependent effect
# [43] = Drug uptake in organic-anion-transporting polypeptide over expressing CHO cells; type: ADME, cell-based, Cricetulus griseus; conditions: chinese hamster, TDE = time-dependent effect
# [44] = Steady state half life in human at 30 to 300 mg administered once daily for 7 days measured under phase 1 clinical trials; type: ADME; conditions: in vivo, read-out: t1/2ss
smiles,measurement,setting,value
CC[C@@H]1[C@@H]2CN(C(=O)[C@H](C(C)(C)C)NC(=O)O[C@@H]3C[C@H]3CCCCC(F)(F)c3nc4ccc(OC)cc4nc3O2)[C@@H]1C(=O)N[C@]1(C(=O)NS(=O)(=O)C2(C)CC2)C[C@H]1C(F)F,EC50,Hepatitis C virus [1],3.1 nM
same,Ki,[2],0.063 nM
same,EC50,Hepatitis C virus [3],6.1 nM
same,half-life,[4],0.93 h
same,half-life,[5],4.2 h
same,Vd,[6],0.8 L/kg
same,PB,Hepacivirus hominis,< 1 pmol/mg
same,EC50,Hepatitis C virus [7],3.9 nM
same,EC50,Hepatitis C virus [8],3.3 nM
same,EC50,Hepatitis C virus [9],3.7 nM
same,EC50,Hepatitis C virus [10],6.6 nM
same,EC50,Hepatitis C virus [11],4.9 nM
same,EC50,Hepatitis C virus [12],1.9 nM
same,EC50,Hepatitis C virus [13],1.5 nM
same,EC50,Hepatitis C virus [14],2.7 nM
same,EC50,Hepatitis C virus [15],4 nM
same,EC50,Hepatitis C virus [16],> 500 nM
same,EC50,Hepatitis C virus [17],> 500 nM
same,Fu,[18],0.42%
same,Fu,[19],0.28%
same,Fu,[20],0.91%
same,Fu,[21],0.46%
same,clearance,[22],13.7 mL/min/kg
same,clearance,[23],3.17 mL/min/kg
same,clearance,[24],14.8 mL/min/kg
same,Vd,[25],0.84 L/kg
same,Vd,[26],0.94 L/kg
same,half-life,[27],2.1 h
same,bioavailability,[28],83%
same,bioavailability,[29],27%
same,bioavailability,[30],10%
same,Fa,[31],100%
same,Fa,[32],30%
same,Fa,[33],23%
same,Kp at 2 h,[34],> 500
same,Kp at 2 h,[35],55
same,Kp at 2 h,[36],100
same,Ratio EC50,[37],<2
same,fraction unbound,[38],< 0.01
same,fraction unbound,[39],< 0.01
same,fraction unbound,[40],< 0.01
same,fraction unbound,[41],< 0.01
same,Drug uptake,[42],Tde
same,Drug uptake,[43],Tde
same,half-life,[44],28 to 41 h
